# Reference: patent US20210369583A1, “COMPOSITIONS FOR PROVIDING SKIN CARE BENEFITS AND METHODS OF USE” (Danisco US Inc., priority 2018, published 2021)
# What was measured:
# HO-1 (Heme-Oxygenase-1) = experiment: Immunostaining of HO-1 in human skin explants, image analysis; assay type: cell-based
# Description: (§1) 59 human skin explants of an average diameter of 14 mm (±1 mm) were prepared on an abdoplasty coming from a person. The explants were kept in survival in BEM culture medium at 37° C. in a humid, 5%-CO2 atmosphere.
# (§2) The tested products were topically applied on the basis of 2 μl per cm^2 and spread using a small spatula twice a day (morning and evening) on day 0, 1, 2, 3 and 4.
# (§3) On D4, the explants of the batches ML and PML were placed on the 3D grid with 900 μl of HBSS and placed into the PolluBox® system.
# (§4) 3 mL of the solution <<ML>> (supplemented with 150 μl/ml of NaCl 0.9%) were exposed by vaporization for 1 hour and half, as shown in the figure below.
# Heme-Oxygenase is a phase II skin anti-oxidant enzyme which generates cell anti-oxidant molecules. […] The immunostaining was performed using an automated slide processing system (Autostainer, Dako) and assessed by microscopical observation. […]
# The images analyses were performed on all the images (9 to 12 images) of each batch using the CellD storing software (Olympus Microscopy, Matrix Optics (M)SdnBhd, Taman Mayhang, Maylasia). For each batch of explants, the percentage of the region of interest covered by the staining (stained surface percentage) was determined by image analysis. […]
# Analyzed batches: T, P2, ML, P2ML (4 batches, 3 explants/batch, so 12 explants at day 5 referred to as TJ5, P2J5, MLJ5, P2MLJ5.
# [1] = tested on: living human skin explants; experiment: Biochemical assay of MDA (lipid peroxidation) on living human skin explants exposed to pollutants; assay type: cell-based
# Description: Product A (Table 11) was diluted in water to obtain the following products at concentrations: product P1=A at 4%, product P2=A at 2% and product P3=A at 1%.
# as §1, §2, §3, §4
# The MDA assay was realized with an enhanced method of the TBARs (Thiobarbituric Acid Reactive Species) assay. The MDA was assayed in HBSS medium by addition of TBARs solution (thiobarbituric acid, hydrochloric acid and tricholoroacetic acid) and placed in a water bath (80° C. for 15 minutes). A lot of substances (like glucose) which are not related with lipoperoxidation, react with thiobarbituric acid (ThioBarbituric Acid Reagents=TBARS), so to enhance the specificity of the assay, the MDA was extracted by a liquid/liquid extraction with butanol. The MDA in butanol was measured in spectrofluorimetry (excitation: 515 nm, emission: 550 nm) using a Tecan Infinite M200 Pro microplate reader. Using this assay, MDA contained in the culture medium BEMc on […] was measured for the 4 explants per batch. The MDA concentration was expressed in pmol of MDA/ml of the medium. Concerned batches: all batches on day 5, 4 explants per batch.
# The average of the blank batch TJ5 was calculated (154.0 nmol/L). Then, for each explant of MLJ5, this average value was subtracted from […]. That corresponds to calculating the delta (increase) of MDA induced by ML for each explant compared to the average of the batch without ML, it is ΔML.
# These average deltas were then compared to the average delta of MDA induction without treatment (ΔML).
structure (smiles),measurement,setting,value
"O=C(O)[C@@H]1CCCN1 [Combination P4, L-Proline]",effect on pollutant-induced HO-1,HO-1 (Heme-Oxygenase-1); after pollutants exposure,strongly reduced the effect of the pollutants
same,effect on HO-1 expression,"HO-1 (Heme-Oxygenase-1); without pollutants, D5",does not seem to affect the HO-1 expression
same,"MDA, variation ΔPML vs ΔML","[1]; MDA induction by pollutants, day 5",−34% #^
same,reduction of the increase of MDA,[1]; after pollutant exposure (ΔPML vs ΔML),34%
same,"MDA, variation PML vs ML","[1]; after pollutants exposure, day 5",−10% ns
